Data as given in patent US20080118573A1, “Use of Heavy Metals in the Treatment of Biofilms” (priority 2004, published 2008).
“And” between values parts separate entries of the source, which are not always exact repeats. Equal entries are not always repeated. Where two headings read alike, the source gives them in different places. Marks after values point to notes of the source that are not given here.

Experiments:
[1] = tested on: Escherichia coli JM109 planktonic and biofilm bacteria; assay type: cell-based; conditions: LB+B1, 24 h exposure
[2] = tested on: Staphylococcus aureus ATCC 29213 planktonic and biofilm bacteria; assay type: cell-based; conditions: LB+B1, 24 h exposure
[3] = tested on: Pseudomonas aeruginosa 15442; assay: Synergy matrix assay of polycide versus metals; assay type: cell-based
[4] = tested on: Pseudomonas aeruginosa ATCC 27853 planktonic and biofilm cultures; assay type: cell-based; conditions: for MBEC: biofilm; for MBC100: planktonic; for MIC: rich media (LB+B1), 4 replicates
[5] = tested on: Pseudomonas aeruginosa biofilms; assay: Metal and antibiotic combination assay; assay type: cell-based; conditions: for MBC / MBEC / MIC: median of 4 replicates
Description: Cells were grown to a mean density of 6.0×10^6 cfu/peg in LB+B1 media.
• 1. […] All data are median values based on 4 replicates.

[6] = tested on: Pseudomonas aeruginosa ATCC 27853 cell populations; assay type: cell-based
[7] = tested on: Pseudomonas aeruginosa ATCC 27853 planktonic and biofilm bacteria; assay type: cell-based; conditions: LB+B1, 24 h exposure
[8] = tested on: Pseudomonas aeruginosa ATCC 27853 planktonic and biofilm cultures; assay type: cell-based; conditions: for Fold Tolerance (MBEC:MBC100) / MBEC / MBC100: MSVP; for MBEC: biofilm; for MIC: minimal media (MSVP), did not change with exposure time, mean ± SD of 28 trials; for MBC100: planktonic
P. aeruginosa biofilms = conditions: after 100 h of exposure; cited from earlier work
[9] = antibiotic or heavy metal alone, LB+B1

Compound: O=S(=O)([O-])[O-].[Zn+2] [Zn^2+, zinc sulphate]
- MIC ([1]; E. coli JM109): 2.2 ± 0.7 mM
- MBEC ([1]; E. coli JM109 biofilm): 31 ± 0 mM
- MBC ([1]; E. coli JM109 planktonic): 31 ± 0 mM
- MIC ([2]; S. aureus ATCC 29213): 2.0 ± 0 mM
- MBEC ([2]; S. aureus ATCC 29213 biofilm): >125 mM
- MBC ([2]; S. aureus ATCC 29213 planktonic): >125 mM
- synergistic effect on polycide activity [3]: did not appear to have any synergistic effect
- MBEC ([4]; LB+B1, exposure time 2 or 27 h): >125 mM
- MBC100 ([4]; LB+B1, exposure time 2 or 27 h): >125 mM
- MIC [4]: 78 ± 31 mM
- MBC [5, 9]: >8192 µg/mL
- MBEC [5, 9]: >8192 µg/mL
- MIC [5, 9]: 4096 µg/mL
- biofilm killed ([6]; 2 h exposure, FIG. 2 Panel A): 90-99%
- concentration tolerated by the surviving population ([6]; less than 0.1% survival of biofilm and planktonic cell populations): > 125 mM
- MIC ([7]; P. aeruginosa ATCC 27853): 78 ± 31 mM
- MBEC ([7]; P. aeruginosa ATCC 27853 biofilm): >125 mM
- MBC ([7]; P. aeruginosa ATCC 27853 planktonic): >125 mM
- Fold Tolerance (MBEC:MBC100) ([8]; exposure time 10 h): 2.3
- Fold Tolerance (MBEC:MBC100) ([8]; exposure time 27 h): 1.0
- MBEC ([8]; exposure time 2 to 8 h): >125 mM
- MBEC ([8]; exposure time 10 h): ≧256 mM
- MBEC ([8]; exposure time 27 h): 102 ± 47 mM
- MIC [8]: 9.5 mM and 9.5 ± 3.3 mM
- MBC100 ([8]; exposure time 2 to 8 h): >125 mM
- MBC100 ([8]; exposure time 10 h): 109 ± 31 mM
- MBC100 ([8]; exposure time 27 h): 102 ± 47 mM

Compound: O=C(O)c1cn(C2CC2)c2cc(N3CCNCC3)c(F)cc2c1=O [Ciprofloxacin]
- MBEC in the presence of Cu^2+, times less than the MBEC for the antibiotic alone ([5]; 200 μg/ml Cu^2+): at least 16 times
- MBC ([5]; Pseudomonas aeruginosa, antibiotic in combination with 200 μg/ml Cu^2+, read-out: MBC): 8 µg/mL
- MIC ([5]; Pseudomonas aeruginosa, antibiotic in combination with 200 μg/ml Cu^2+, read-out: MIC): 4 µg/mL
- MBC ([5]; Pseudomonas aeruginosa, antibiotic in combination with 500 μg/ml Zn^2+, read-out: MBC): 32 µg/mL
- MIC ([5]; Pseudomonas aeruginosa, antibiotic in combination with 500 μg/ml Zn^2+, read-out: MIC): 0.25 to 1 µg/mL
- MBC ([5]; Pseudomonas aeruginosa, antibiotic or heavy metal alone, LB+B1, read-out: MBC): 8 µg/mL
- MBEC ([5]; antibiotic in combination with 200 μg/ml Cu^2+): 16** μg/ml
- MBEC ([5]; antibiotic in combination with 500 μg/ml Zn^2+): >64 µg/mL
- log10 reduction in viable cell counts of biofilms (P. aeruginosa biofilms): < 1.5 log10

Compound: lead nitrate [Pb^2+]
- Fold Tolerance (MBEC:MBC100) ([4]; LB+B1, exposure time 27 h): 0.7
- MBEC ([4]; LB+B1, exposure time 2 h): >40 mM
- MBEC ([4]; LB+B1, exposure time 27 h): 59 ± 23 mM
- MBC100 ([4]; LB+B1, exposure time 2 h): >40 mM
- MIC [4]: 12 ± 5 mM
- eradication of the biofilm cultures with extended exposure times ([6]; 27 hours exposure): complete eradication
- Fold Tolerance (MBEC:MBC100) ([8]; exposure time 2 to 4 h): 4.0
- Fold Tolerance (MBEC:MBC100) ([8]; exposure time 6 h): 3.0
- Fold Tolerance (MBEC:MBC100) ([8]; exposure time 8 h): 4.9
- Fold Tolerance (MBEC:MBC100) ([8]; exposure time 10 h): 3.0
- Fold Tolerance (MBEC:MBC100) ([8]; exposure time 27 h): 1.6
- MBEC ([8]; exposure time 2 to 4 h): ≧79 mM
- MBEC ([8]; exposure time 6 h): ≧79 mM
- MBEC ([8]; exposure time 8 h): 59 ± 23 mM
- MBEC ([8]; exposure time 10 h): 59 ± 23 mM
- MBEC ([8]; exposure time 27 h): 26 ± 15 mM
- MIC [8]: 1.2 ± 0 mM
- MBC100 ([8]; exposure time 2 to 4 h): 20 ± 0 mM
- MBC100 ([8]; exposure time 6 h): 30 ± 11 mM
- MBC100 ([8]; exposure time 8 h): 12 ± 5 mM
- MBC100 ([8]; exposure time 10 h): 20 ± 0 mM
- MBC100 ([8]; exposure time 27 h): 16 ± 6 mM
